Experimental data: patent US20160143926A1, “COMPOSITIONS AND METHODS FOR THE PREPARATION OF KIDNEY PROTECTIVE AGENTS COMPRISING AMIFOSTINE AND AMINO ACIDS” (priority 2013, published 2016)
Several values for one entry are separate records, joined by “and”; a condition that tells them apart may be missing. Equal values may be shown once. Read-outs that look alike come from different tables or passages of the source.

Tests used:
kidneys [1] = experiment: Kidney protection / 68Ga-DOTATATE uptake in the kidneys, biodistribution studies in mice; assay type: in vivo; conditions: Amifostine alone at a dose of 0.63 mg/ml, co-administrated with 68Ga-DOTATATE
Method: The first i.v. injection of the composition may be scheduled 30 min prior to 68Ga-DOTATATE administration, while the next two injections may be performed at 15 min and 60 min, respectively, after the radiopeptide administration.
Kidney protection effects of Lysine-Arginine (12.4 mg/ml and 12.5 mg/ml, respectively) and commercially available Clinisol® and Gelofusine co-injected with ^68Ga-DOTATATE (40 uCi) are determined based on biodistribution studies in mice. Lysine-Arginine, Clinisol® and Gelofusine solutions were used as positive controls to determine the efficacies of compositions in accordance with embodiments of the invention.
Mice (n=5/group, male 6-8 weeks old) were given tail intravenous injection (200 ul) of respective solutions, 30 min prior to the administration of ^68Ga-DOTATATE, followed by further injections at 15 min and 1 hr post injection. An example of application schedule is illustrated in FIG. 1.
Mice were then sacrificed by CO2 asphyxiation, and kidneys were collected to determine the amounts of radiation absorbed, which are then compared to the total injected radioactive doses.
Mice (n=5/group, male 6-8 weeks old) were given tail intravenous injection (200 ul) of respective solutions, 30 min prior to the administration ^68Ga-DOTATATE, followed by further injections 15 min and 1 hr post injection, as described in Example 1.

kidneys [2] = conditions: rats, intravenous co-injection of 400 mg/kg with 111In-DTPA-octretide; cited from earlier work
kidneys [3] = conditions: patients, 111In-DTPA-octretreotide, cited from earlier work

NCCCNCCSP(=O)(O)O [Amifostine]
kidney protection, Amifostine used alone (kidneys [1]): 12.24% and 12.2%

NCCCC[C@H](N)C(=O)O [L-Lysine]
kidney protection (kidneys [2]): 40%

NCCCC[C@H](N)C(=O)O [lysine]
kidney protection (kidneys [3]; 25 g of lysine): 17%±9%
kidney protection (kidneys [3]; infusion of 75 g of lysine): 44%±11%
